For one series, the target named is MC4 receptor (Homo sapiens, UniProt P32245). Put plainly: MC4 EC50 functional potency (protocol E of US2005/0176772 / WO 2005/077935). The format is cell-based. As for the experimental part: The compounds of formula (I) of the present invention have utility as MCR4 agonists in the treatment of various disease states.
MC5 and MC4 EC50 activity was determined as described by assay protocols D and E, respectively, in US2005/0176772 (pages 28-30).

The target of the next series is T1, CYP3A4 (Homo sapiens, UniProt P08684).
T1 construct: utilizes human liver microsomes together with isoform-specific clinical drug probes; from tissue; host or cells: human liver microsomes
T1 sequence (P08684 whole entry, canonical isoform): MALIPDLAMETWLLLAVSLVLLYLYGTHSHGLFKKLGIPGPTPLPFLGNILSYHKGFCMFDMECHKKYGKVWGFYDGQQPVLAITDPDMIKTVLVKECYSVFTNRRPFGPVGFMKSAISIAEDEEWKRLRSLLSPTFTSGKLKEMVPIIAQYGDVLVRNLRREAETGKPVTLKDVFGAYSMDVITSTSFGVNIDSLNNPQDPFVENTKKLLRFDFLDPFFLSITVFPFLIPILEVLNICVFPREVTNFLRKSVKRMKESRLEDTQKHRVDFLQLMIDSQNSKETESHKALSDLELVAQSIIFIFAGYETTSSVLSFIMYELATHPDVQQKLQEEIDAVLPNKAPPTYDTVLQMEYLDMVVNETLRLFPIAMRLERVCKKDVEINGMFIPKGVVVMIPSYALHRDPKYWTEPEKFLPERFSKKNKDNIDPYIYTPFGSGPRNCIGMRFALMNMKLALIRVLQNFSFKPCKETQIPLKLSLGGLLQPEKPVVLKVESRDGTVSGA
The experiment in a line: High density DDI 3 μM cocktail screen in human liver microsomes, midazolam probe. The format is in vitro ADME. Particulars: human, liver microsomes, probe midazolam, read-out: % inhibition 3A4 @ 3 μM. As for the experimental part:
High Density Drug-Drug Interactions (DDI) 3 μM Cocktail Screen
A drug interaction is a situation in which a substance affects the activity of another drug, i.e. the effects are increased or decreased, or together they produce a new effect that neither produces on its own. Drug interactions may be the result of various processes but a relatively common one is where one drug affects the pharmacokinetics of another by inhibiting the cytochrome P450 that metabolises it. Because of the importance of these phenomena, assessment of the DDI potential for new chemical entities (NCEs) is considered important early on in the drug discovery process.
The DDI cocktail screen in human liver microsomes (HLM) is run in a fully automated fashion and the aim of the screen is to provide a single-point assessment of the DDI potential of new chemical entity (NCE; tested at […]) against the 4 primary cytochrome P450 enzymes, 1A2, 2D6, 2C9 and 3A4.
The substrate cocktail approach for P450 DDI utilizes human liver microsomes together with isoform-specific clinical drug probes and permits the simultaneous measurement of the inhibition of P450 1A2, 2C9, 2D6 & 3A4 activities in a single incubation. This is run in high throughput with simultaneous detection of metabolites by LC-MS/MS. This method has been thoroughly tested and evaluated using standard compounds.
Appearance of the metabolite of each substrate is measured over time in the presence and absence of the NCE (test compound/inhibitor) at a concentration of 3 μM. The compounds are assessed for their inhibitory potential as a percentage value and interpreted using the following scheme.
(In general: Liver microsomes are a subcellular fraction often used to study metabolism.)

Series [1] can be described thus: In vitro metabolism rate determination, human liver microsome (HLM) assay. The format is in vitro ADME. To be noted: human, liver microsomes, read-out: HLM: Clint, app. The source says: In Vitro Metabolism Rate Determination (Human Liver Microsome (HLM); Rat Liver Microsome (RLM) Assay)
Many drugs are metabolised by the cytochrome P450 mono-oxygenase system. This enzyme is found in high concentrations in the liver and is bound to the endoplasmic reticulum of the hepatocyte. The enzyme system can be obtained in semi-purified state by the preparation of the hepatic microsomal fractions. Determining a compound's in vitro half-life in such a system provides a useful indicator of metabolic stability.
Methodology for In Vitro Rate Determination Using Hepatic & Supermix Microsomes
The method outlined below is for a total incubation volume of 1.5 ml.
1. The following mixture is prepared in a test tube:
2. Defrost microsomes at room temperature and add sufficient microsomes to give a final concentration of 0.5 nmol cytochrome P450/ml of incubation e.g. for a 1.5 ml incubation, the volume of microsomes to be added is:
3. Add sufficient MilliQ water to give a total incubation volume of 1.425 ml.
6. Add substrate to the incubation. The substrate should be at an initial concentration of 1 μM. The volume of substrate required in the remaining 1.162.5 ml incubation is calculated as follows: […]
8. Pre-incubate the tube containing the incubation mix, also positive control and no cofactor tubes in the thermostatically controlled shaking water bath set at 37° C. for approx 5 min.
9. Add NADP to initiate reaction (75 μl to each 1.162.5 ml incubation mix, 12.5 μl to positive control tube and 5 μl to no substrate tube) and take first time point immediately. The PNA positive control, no cofactor control and no substrate tubes are incubated for the total incubation time.
10. Remove 100 μl aliquots up to 9 different sampling points from 0 to 60 min (usually 0, 3, 5, 10, 15, 20, 30, 45 & 60 min) and terminate reaction. Longer incubation times can be used, but, after 120 min the microsomes deteriorate. The reaction may be terminated by addition of organic solvent, acid or base. At the end of the incubation process the no cofactor and no substrate controls in a similar manner i.e. terminate with the same reagent.
11. Analyse samples (including no cofactor and no substrate control) by a specific assay for the substrate to determine the disappearance kinetics.
Data obtained using the procedure described above can be quantified in terms of the substrates in vitro intrinsic clearance (Clint). Providing that the substrate concentration is below Km, the metabolism should be 1st order giving a log-linear plot of substrate disappearance with time.
The gradient of this line is the first order rate constant (k) for the substrate disappearance and is determined by regression analysis. This rate constant can be converted to the half-life according to the following equation.
Alternatively the rate constant can be converted to an intrinsic clearance (Clint) according to the following equation:— Clint(μl/min/mg)=(k/protein concentration in incubation (mg/ml))*1000

This note sets out measurements from patent US8592403B2, “Diazepine and diazocane compounds as MC4 agonists” (Pfizer Limited, priority 2008, dated 2013).

Chain of MC4 receptor (P32245 whole entry): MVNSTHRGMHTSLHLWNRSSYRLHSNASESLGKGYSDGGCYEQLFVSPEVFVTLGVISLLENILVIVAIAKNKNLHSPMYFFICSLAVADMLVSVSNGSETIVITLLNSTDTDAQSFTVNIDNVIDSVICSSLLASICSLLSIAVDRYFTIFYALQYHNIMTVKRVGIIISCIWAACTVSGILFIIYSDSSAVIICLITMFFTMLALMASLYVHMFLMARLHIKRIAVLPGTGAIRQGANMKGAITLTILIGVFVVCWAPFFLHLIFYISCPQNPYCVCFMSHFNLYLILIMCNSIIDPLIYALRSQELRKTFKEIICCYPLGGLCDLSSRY

`CC(=O)N1CCN(C(=O)[C@@H]2CN(C(C)(C)C)C[C@H]2c2ccc(F)cc2F)CCC1c1ccc(F)cc1F` (mixture of isomers) [Example 18]: the EC50 at MC4 receptor was found to be 152 nM. Further, the inhibition at 3 µM at CYP3A4 was found to be 24.2%. For the same molecule, the microsomal CLint at 1 μM in series [1] amounted to 34 µL/min/mg.
Turning to `CC(C)(C)N1C[C@@H](C(=O)N2CCC(c3ccc(F)cc3F)N(S(C)(=O)=O)CC2)[C@H](c2ccc(F)cc2F)C1` (mixture of isomers) [Example 43], it took 397 nM to reach a half-maximal effect on MC4 receptor (EC50). For the same molecule, the microsomal CLint at 1 μM in series [1] amounted to 52 µL/min/mg.
The matching figures for `COC(=O)N1CCN(C(=O)[C@@H]2CN(C(C)(C)C)C[C@H]2c2ccc(F)cc2F)CCC1c1ccc(F)cc1F` (mixture of isomers) [Example 54]: 44.8 nM and 32.8 µL/min/mg.
On MC4 receptor, `CS(=O)(=O)N1CCN(C(=O)[C@@H]2CN(c3ccc(C#N)nn3)C[C@H]2c2ccc(F)cc2F)CCCC1c1ccc(F)cc1` (mixture of isomers) [Example 77] came in with an EC50 of 54.6 nM. Besides, at CYP3A4, the inhibition at 3 µM came to 56.5%. For the same molecule, the microsomal CLint at 1 μM in series [1] was 43 µL/min/mg.
In turn, `CC(=O)N1CCN(C(=O)[C@@H]2CN(C(C)(C)C)C[C@H]2c2ccc(F)cc2F)CCC1c1ccc(Cl)cc1` (mixture of isomers) [Example 84] gave an EC50 at MC4 receptor of 206 nM. In addition, in series [1], the microsomal CLint at 1 μM turned out to be 27.9 µL/min/mg.
In turn, `CC(C)(C)N1C[C@@H](C(=O)N2CCC(c3ccc(Cl)cc3)N(S(C)(=O)=O)CC2)[C@H](c2ccc(F)cc2F)C1` (mixture of isomers) [Example 85] displayed an EC50 at MC4 receptor of 404 nM. For the same molecule, the inhibition at 3 µM on CYP3A4 is 30.5%. Further, the microsomal CLint at 1 μM in series [1] is 48.4 µL/min/mg.
In the same order, the values of `COC(=O)N1CCN(C(=O)[C@@H]2CN(C(C)(C)C)C[C@H]2c2ccc(F)cc2F)CCC1c1ccc(Cl)cc1` (mixture of isomers) [Example 86] are 97.2 nM, 20.3% and 29.6 µL/min/mg.
In the same order, the values of `CCC(=O)N1CCN(C(=O)[C@@H]2CN(C(C)(C)C)C[C@H]2c2ccc(Cl)cn2)CCC[C@H]1c1ccc(Cl)cc1` [Example 19] are 64.8 nM, 41% and 62.6 µL/min/mg.
Turning to `CC(=O)N1CCN(C(=O)C2CN(c3ccc(C#N)nn3)C[C@H]2c2ccc(F)cc2F)CCC[C@H]1c1ccc(Cl)cc1` (stereo partly shown) [Example 21], the inhibition at 3 µM on CYP3A4 amounted to 35.1%.
Molecule `CC(=O)N1CCN(C(=O)[C@@H]2CN(c3ccc(C#N)nn3)C[C@H]2c2ccc(F)cc2F)CCC[C@H]1c1ccc(Cl)cc1` [Example 21] displayed an EC50 on MC4 receptor of 9.42 nM.
`CC(C)C(=O)N1CCN(C(=O)[C@@H]2CN(c3ccc(C#N)nn3)C[C@H]2c2ccc(F)cc2F)CCC[C@H]1c1ccc(Cl)cc1` [Example 22]: the EC50 on MC4 receptor came to 5.25 nM. For the same molecule, at CYP3A4, the inhibition at 3 µM was 59.2%.
Regarding `COc1ccc([C@@H]2CN(c3ccc(C#N)nn3)C[C@H]2C(=O)N2CCC[C@@H](c3ccc(Cl)cc3)N(C(=O)C3CC3)CC2)c(F)c1` [Example 23], on MC4 receptor, the response was half-maximal at 4.31 nM (EC50). For the same molecule, the inhibition at 3 µM on CYP3A4 amounted to 56.2%. The microsomal CLint at 1 μM in series [1] is 29.1 µL/min/mg.
In the same order, the values of `COc1ccc([C@@H]2CN(c3ccc(C#N)nn3)C[C@H]2C(=O)N2CCC[C@@H](c3ccc(Cl)cc3)N(C(=O)C(C)C)CC2)c(F)c1` [Example 24] are 2.27 nM, 43.4% and 37.3 µL/min/mg.
In the same order, the values of `COc1ccc([C@@H]2CN(c3ccc(C#N)nn3)C[C@H]2C(=O)N2CCC[C@@H](c3ccc(Cl)cc3)N(C(=O)CC(F)(F)F)CC2)c(F)c1` [Example 26] are 8.31 nM, 20.4% and 30.2 µL/min/mg.
The matching figures for `COc1ccc([C@@H]2CN(c3ccc(=O)n(C)n3)C[C@H]2C(=O)N2CCC[C@@H](c3ccc(Cl)cc3)N(C(C)=O)CC2)c(F)c1` [Example 27]: 5.02 nM, 25.7% and 20.4 µL/min/mg.
As for `CCC(=O)N1CCN(C(=O)[C@@H]2CN(c3ccc(=O)n(C)n3)C[C@H]2c2ccc(OC)cc2F)CCC[C@H]1c1ccc(Cl)cc1` [Example 28], on MC4 receptor, the midpoint of the response, the EC50, lay at 3.4 nM. On CYP3A4, the inhibition at 3 µM came out at 40.8%. In addition, the microsomal CLint at 1 μM in series [1] came to 21.5 µL/min/mg.
In the same order, the values of `COc1ccc([C@@H]2CN(c3ccc(=O)n(C)n3)C[C@H]2C(=O)N2CCC[C@@H](c3ccc(Cl)cc3)N(C(=O)CC(F)(F)F)CC2)c(F)c1` [Example 30, 6-[(3S,4R)-3-{[5S-(4-chlorophenyl)-4-(3,3,3-trifluoropropanoyl)-1,4-diazocan-1-yl]carbonyl}-4-(2-fluoro-4-methoxyphenyl)pyrrolidin-1-yl]-2-methylpyridazin-3(2H)-one] are 6.01 nM, 36.8% and 18.2 µL/min/mg.
For the molecule `CC(=O)N1CCN(C(=O)[C@@H]2CN(c3ccc(=O)n(C)n3)C[C@H]2c2ccc(F)cc2F)CCC[C@H]1c1ccc(Cl)cc1` [Example 32], the EC50 at MC4 receptor amounted to 6.63 nM. The microsomal CLint at 1 μM in series [1] stood at 14.8 µL/min/mg.
Consider `CCC(=O)N1CCN(C(=O)[C@@H]2CN(c3ccc(=O)n(C)n3)C[C@H]2c2ccc(F)cc2F)CCC[C@H]1c1ccc(Cl)cc1` [Example 35], for which the response on MC4 receptor was half-maximal at 5.29 nM (EC50). Also, the inhibition at 3 µM at CYP3A4 stood at 68.3%.
The molecule `CC(=O)N1CCN(C(=O)[C@@H]2CN(c3ccc(=O)n(C)n3)C[C@H]2c2ccc(Cl)cn2)CCC[C@H]1c1ccc(Cl)cc1` [Example 36] returned an EC50 on MC4 receptor of 7.67 nM.
On the same count and under the same terms, the value for `CCC(=O)N1CCN(C(=O)[C@@H]2CN(c3ccc(=O)n(C)n3)C[C@H]2c2ccc(Cl)cn2)CCC[C@H]1c1ccc(Cl)cc1` [Example 38] was 6.9 nM.
For `CCOC(=O)N1CCN(C(=O)[C@@H]2CN(C(C)(C)C)C[C@H]2c2ccc(F)cc2F)CCC[C@H]1c1ccc(Cl)cc1` [Example 52], the 50% effective concentration (EC50) at MC4 receptor worked out at 35.2 nM. Also, the inhibition at 3 µM at CYP3A4 stood at 0%.
In the same order, the values of `N#Cc1ccc(N2C[C@@H](C(=O)N3CCC[C@@H](c4ccc(Cl)cc4)N(C(=O)CC(F)(F)F)CC3)[C@H](c3ccc(F)cc3F)C2)nn1` [Example 58] are 22.1 nM and 46.5%.
In turn, `CC(C)(C)N1C[C@@H](C(=O)N2CCC[C@@H](c3ccc(Cl)cc3)N(C(=O)C3N=CC=N3)CC2)[C@H](c2ccc(F)cc2F)C1` [Example 64] gave an EC50 on MC4 receptor of 247 nM.
`COC(=O)N1CCN(C(=O)C2CN(c3ccc(C#N)nn3)C[C@H]2c2ccc(OC)cc2F)CCC[C@@H]1c1ccc(Cl)cc1` (stereo partly shown) [Example 88]: at CYP3A4, the inhibition at 3 µM was found to be 21.5%. Moreover, the microsomal CLint at 1 μM in series [1] came to 40.1 µL/min/mg.
For `COC(=O)N1CCN(C(=O)C2CN(c3ccc(C#N)nn3)CC2c2ccc(OC)cc2F)CCC[C@H]1c1ccc(Cl)cc1` (stereo partly shown) [Example 89], on CYP3A4, the inhibition at 3 µM worked out at 28.5%. Moreover, the microsomal CLint at 1 μM in series [1] was 42.9 µL/min/mg.

The term EC50 denotes the concentration needed to bring the measured effect to its halfway point. Low values mean a more potent agent, high ones a less potent agent. As a reminder, the inhibition is how much of the control response was suppressed.
